# Experimental data from article PMC11052825 (Clinical Pharmacokinetics, 2024).
# Like-named read-outs stand apart in the source and are kept apart here.
# Legend:
# [1] = Risk categorization of statins for coadministration with encorafenib; details: qualitative, from metabolic and transporter profile
# [2] = system: CYP2B6; type: in vivo, Human
# [3] = system: CYP2B6; details: in vitro; cited from earlier work
# [4] = system: BCRP; details: in vitro, weak inhibitor; cited from earlier work
# [5] = system: CYP2D6; details: cited from earlier work
# [6] = cited from earlier work
# [7] = system: CYP3A4; details: cited from earlier work
# [8] = system: OATP1B1/3; details: in vitro, potent inhibitor; cited from earlier work
# [9] = Phase 1 DDI study: plasma PK of encorafenib; type: in vivo; details: human, oral, GM (CV%); for AUC(0-t): AUClast
# [10] = system: CYP2C19; details: cited from earlier work
# [11] = system: OATP1B1, OATP1B3, and BCRP; type: in vivo, Human; details: phase 1 study and exploratory CP-I analysis
# [12] = system: CYP2B6; details: in vitro hepatocyte assay, clinically relevant plasma concentrations; cited from earlier work
# [13] = type: in vivo, Human; details: single oral administrations on days −7, 1 and 14
# [14] = system: BCRP; details: cited from earlier work
# [15] = system: CYP2B6 and CYP3A4; details: strong inducer of CYP2B6 and CYP3A4; cited from earlier work
# [16] = system: OATP1B1; details: strong inhibitor of OATP1B1; cited from earlier work
# [17] = target: T1, OATP1B1 (Homo sapiens, UniProt Q9Y6L6); test: Maximum fold change of plasma CP-I in phase 3 safety lead-in participants; type: in vivo; details: SLI phase, encorafenib 300 mg QD + cetuximab
# T1 sequence (Q9Y6L6 1-691): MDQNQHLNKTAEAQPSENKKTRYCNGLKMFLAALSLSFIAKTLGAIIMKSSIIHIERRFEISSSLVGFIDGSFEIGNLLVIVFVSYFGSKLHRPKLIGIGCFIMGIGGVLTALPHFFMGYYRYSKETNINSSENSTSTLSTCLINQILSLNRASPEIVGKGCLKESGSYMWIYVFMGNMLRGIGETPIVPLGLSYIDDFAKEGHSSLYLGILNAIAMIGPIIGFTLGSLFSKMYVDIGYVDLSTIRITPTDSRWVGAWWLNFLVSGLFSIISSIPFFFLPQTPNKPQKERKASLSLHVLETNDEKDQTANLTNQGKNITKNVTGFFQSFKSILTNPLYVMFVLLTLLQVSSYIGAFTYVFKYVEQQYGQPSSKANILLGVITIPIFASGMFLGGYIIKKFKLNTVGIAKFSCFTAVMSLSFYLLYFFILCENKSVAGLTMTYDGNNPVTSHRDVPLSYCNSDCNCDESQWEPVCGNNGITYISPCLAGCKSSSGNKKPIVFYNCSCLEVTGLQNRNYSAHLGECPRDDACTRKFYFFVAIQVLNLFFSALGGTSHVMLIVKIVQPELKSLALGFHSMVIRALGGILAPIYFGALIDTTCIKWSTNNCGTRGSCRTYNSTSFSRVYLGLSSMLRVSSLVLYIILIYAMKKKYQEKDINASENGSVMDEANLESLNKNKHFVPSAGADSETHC
compound,measurement,setting,value
CC(C)c1c(C(=O)Nc2ccccc2)c(-c2ccccc2)c(-c2ccc(F)cc2)n1CC[C@@H](O)C[C@@H](O)CC(=O)O [Atorvastatin],Risk category following coadministration with encorafenib,[1],at risk of loss of efficacy
"CC(NC(C)(C)C)C(=O)c1cccc(Cl)c1 (centres unmarked) [Bupropion, bupropion]",Decrease in AUClast compared with administration on its own,[2]; following repeated doses of encorafenib and binimetinib,26%
same,Decrease in AUClast compared with administration on its own,[2]; following single dose of encorafenib and binimetinib,23%
"COC(=O)N[C@@H](C)CNc1nccc(-c2cn(C(C)C)nc2-c2cc(Cl)cc(NS(C)(=O)=O)c2F)n1 [Encorafenib, encorafenib]",Unbound R1 value (reversible inhibition),[3],3.1
same,R values (inhibition),[4],≥ 1.1
same,Share of metabolism,[5],1%
same,Clinical CYP2B6 inhibition (conclusion),"[2]; bupropion probe, after a single dose of encorafenib",does not act as an inhibitor of CYP2B6
same,Clinical CYP2B6 induction (conclusion),"[2]; bupropion probe, steady-state encorafenib",likely not a clinically relevant inducer of CYP2B6
same,Steady-state exposure lower compared with exposure following a single dose,[6]; autoinduction of CYP3A4,approximately 50%
same,Estimated bioavailability,"[6]; oral, no reference given",at least 86%
same,Time to peak concentrations,"[6]; oral, no reference given",≤ 2 h
same,Share of metabolism,[7],83%
same,R values (inhibition),[8],≥ 1.1
same,AUC(0-t),[9]; encorafenib single dose (day 1),25900 ng·h/mL
same,AUC(0-t),[9]; encorafenib steady state (day 14),13100 ng·h/mL
same,Cmax,"[9]; Cmax, encorafenib steady state (day 14), n=10",2940 ng/mL
same,Share of metabolism,[10],16%
same,Clinical BCRP inhibition (conclusion),[11],likely an inhibitor of BCRP
same,Clinical OATP1B1/3 inhibition (conclusion),[11],may also inhibit OATP1B1/3 to a lesser extent
same,R3 values (induction),[12],< 0.9
"C[C@H]1NC(C)(C)CO[C@]1(O)c1cccc(Cl)c1 [Hydroxybupropion, hydroxybupropion]",Change in AUClast,[2]; following a single dose of encorafenib and binimetinib,not changed
same,Increase in AUClast,[2]; with repeated doses of encorafenib and binimetinib,48%
CC[C@H](C)C(=O)O[C@H]1C[C@@H](C)C=C2C=C[C@H](C)[C@H](CC[C@@H]3C[C@@H](O)CC(=O)O3)[C@H]21 [Lovastatin],Risk category following coadministration with encorafenib,[1],at risk of loss of efficacy
O=C(O)C[C@H](O)C[C@H](O)/C=C/c1c(C2CC2)nc2ccccc2c1-c1ccc(F)cc1 [Pitavastatin],Risk category following coadministration with encorafenib,[1],highest risk of increased exposure
CC[C@H](C)C(=O)O[C@H]1C[C@H](O)C=C2C=C[C@H](C)[C@H](CC[C@@H](O)C[C@@H](O)CC(=O)O)[C@H]21 [Pravastatin],Risk category following coadministration with encorafenib,[1],least likely to be affected
"CC(C)c1nc(N(C)S(C)(=O)=O)nc(-c2ccc(F)cc2)c1/C=C/[C@@H](O)C[C@@H](O)CC(=O)O [Rosuvastatin, rosuvastatin]",Tmax,[13],2 h
same,Theoretical maximum fold-change in exposure based on BCRP alone,[14],2 fold
same,Risk category following coadministration with encorafenib,[1],highest risk of increased exposure
NC(=O)N1c2ccccc2C=Cc2ccccc21 [carbamazepine],Effect of treatment on bupropion and hydroxybupropion,[15],substantial decrease in bupropion and increase in hydroxybupropion
CO[C@H]1/C=C/O[C@@]2(C)Oc3c(C)c(O)c4c(O)c(c(/C=N/N5CCN(C)CC5)c(O)c4c3C2=O)NC(=O)/C(C)=C\C=C\[C@H](C)[C@H](O)[C@@H](C)[C@@H](O)[C@@H](C)[C@H](OC(C)=O)[C@@H]1C [rifampin],Plasma CP-I maximum fold-change,[16],approximately 6 fold
Coproporphyrin I [CP-I],Observed maximum fold change in CP-I concentrations,"[17]; C1D1 (single dose), CRC patients",1.4 fold
same,Observed maximum fold change in CP-I concentrations,[17]; C2D1,1.2 fold
